Where two headings read alike, the source gives them in different places. Blank lines part the entries; values can stand above or below the molecule they belong to.
Legend:
DUBs [1] = experiment: A-ring SAR: total ubiquitin pool in HEK293T lysates overexpressing ubiquitin-HA, western blot; type: biochemical, human; details: 1.5 h, compounds numbered as in FIG. 3
Procedure: HEK293T lysates overexpressing ubiquiting-HA were treated with the stated compound for 1.5 h and the total ubiquitin pool was analyzed by western blot (HA). […] Similar data were obtained for Cos-1 lysates.

DUBs [2] = experiment: decomposition of high molecular weight ubiquitinated proteins (HMW-Ub) in lysates of HEK 293T cells expressing HA-Ub; type: biochemical, human; details: for DUB inhibitory activity, SAR in words: relative to C4 or parent analog; for stabilization of the HMW-Ub pool: HEK 293T HA-Ub lysates, 37° C.
Procedure: FIG. 30 depicts data showing that diphenylcarbonates inhibit the decomposition of high molecular weight ubiquitinated proteins (HMW-Ub). Lysates were prepared from HEK 293T cells expressing HA-ubiquitin. Samples were incubated at 37° C. and reactions were quenched by the addition of reducing Laemmli buffer. HMW-Ub was assessed by SDS-PAGE and immunoblotting with anti-HA antibody. A. Representative immunoblots measuring the decomposition of HMW-Ub in lysates treated with either the DMSO vehicle, G5 (10 μM) or C4 (500 μM). B. Plot of the decomposition of HMW-Ub in lysates treated with DMSO and C4 (500 μM) (N=2; error bars denote range). C. Inhibition of HMW-Ub decomposition by diphenylcarbonates. Lysates were treated with diphenylcarbonates (50 μM). “-” denotes no treatment; D, 1% DMSO vehicle; IU1, an USP14-specific inhibitor; Bort, bortezomib, a proteasome inhibitor. D. Representative decomposition of HMW-Ub after 2 h incubation in the presence of varying concentrations of C4. See also FIG. 36. E. Quantitation of D. The values of EC50 reported in FIG. 29B are the average and S.E.M. of at least 3 independent experiments. See also FIG. 37 and FIG. 38.
Cells overexpressing HA-ubiquitin were prepared as above. Pellets were typically stored at −80° C. until required, at which time they were thawed on ice. Cell lysis was performed in lysis buffer using a Dounce homogenizer (10 strokes, with grinding, on ice: typical yield approx. 2-5 mg protein per transfected T75 flask for HEK 293T cells; 1-3 mg protein from a T75 flask for Cos-1). Crude lysate was centrifuged at 17000 g for 10 min at 4° C., after which time the concentration of the lysate was normalized to 1 mg/mL. The lysate was aliquoted into PCR strip tubes (typical volumes 75-50 μL) and compound in DMSO was added to this to give a final concentration of DMSO of 1%. Tubes were briefly centrifuged, overlaid with Chill-out wax (50 μL) and placed in a PCR machine at 37° C. with heated lid set to 37° C. Aliquots (9 μL) were removed at the stated times and immediately quenched in (2× final concentration) reducing (dithiothreitol) loading buffer and frozen (−19° C.) till required. Western blot analysis was carried out using standard methods. Samples were resolved by SDS-PAGE, transferred to PVDF [(0.45 μm) (Towbin buffer, tank apparatus, 90 V 1 hour, then overnight at 30 V, 4° C.)] then blocked in 15% milk in TBS-T HS (100 mM Tris HCl, pH 7.6, 500 mM NaCl, 0.5% […]) for at least 2 hours at RT. Afterward, membrane was washed in TBS-T HS then probed with anti HA-HRP (1:18000) for 1.33 hours at RT. Membrane was washed 3 times in TBS-T HS (15 mins) then once in TBS (15 mins) and exposed to ECL II and visualized using blue biofilm. […] When required, membranes were stripped in 100 mM glycine pH 4, 500 mM NaCl, 1% SDS, 5 mM BME, at 55° C. for 19 mins, then analyzed.
Lysates were prepared from HEK 293T cells expressing N-terminally HA-tagged ubiquitin (HA-Ub) to facilitate the observation of ubiquitinated proteins. In the absence of a DUB inhibitor, the HMW-Ub pool decomposed with a half-life of 34 min (FIG. 30A,B). […] Similar results were obtained in lysates prepared from Cos-1 cells expressing HA-Ub.

[3] = test system: USP9x, USP19, USP7/8, USP28/15; experiment: HA-Ub-VS activity profiling in cell lysates, USPs; type: biochemical, human
Procedure: (§1) HA-ubiquitin vinylsulfone (HA-Ub-VS) irreversibly labels DUBs by modifying the catalytic cysteine residue Inhibition of the DUB prevents HA-Ub-VS labeling and the band is. […] The interaction with UCHL1/3 is reversible.
(§2) Lysate labeling assay on untransfected cells (1.5 mg/mL) was run with the stated concentration of inhibitor (or 1% DMSO control) for between 19-60 mins. After this time HA-Ub-VS (1.5-0.7 μM) was added and incubated for 19 mins. After this time reaction mixture (9 μL) was removed and quenched in 2× (final concentration) reducing loading buffer. For recovery experiments, a lysate of 6 mg/mL was treated with saturating compound C14 (250 μM) and incubated for 40 mins. Afterward, the lysate was diluted to 0.6 mg/mL (final concentration of inhibitor 25 μM) in lysis buffer (final volume 100 μL), then HA-Ub-VS was added. Aliquots (15 μL) were removed at the stated time (5-119 mins) and immediately quenched in 2× (final concentration) reducing loading buffer. For all HA-Ub-VS experiments samples in loading buffer were heated only to 37° C. prior to loading on a gel. This assay is highly susceptible to concentration of lysate and HA-Ub-VS. Cell experiments were carried out as above with some modifications. For Cos-1 and MCF-7 cells, after trypsinization, media with compound was added to give a final concentration of compound equal to that used in the assay. Cell pellets were lysed on an ice/salt bath with a temperature of −5° C. and lysate was centrifuged for only 5 mins.
(§3) HA-Ub-VS is an irreversible inhibitor of DUBs that is widely used in activity profiling. If the DUB inhibitors react to form a thiocarbonylated enzyme as proposed (FIG. 29B), then HA-Ub-VS labeling will be blocked. Treatment of HEK 293T lysates with HA-Ub-VS produced the characteristic pattern of protein bands at 250, 150-100, 45, 38 and 36 kDa, generally ascribed to USP9x (292 kDa), USP19 (146 kDa), USP7/8 (128 and 127 kDa, respectively), USP28/15 (122 and 112 kDa, respectively), UCH-L5 (38 kDa), UCH-L3 (26 kDa) and UCH-L1 (25 kDa) as depicted in FIG. 31.
(§4) The effect of diphenylcarbonates on HA-Ub-VS labeling was assessed to investigate the selectivity of DUB inhibition. Lysates were preincubated with diphenyl carbonates (75 μM), then treated with HA-Ub-VS (FIG. 31A). […] These C17 and C22-sensitive DUBs are most likely USP9x, USP19, USP7/8 and UCHL5, based on molecular weight (FIGS. 31B and 38). The identity of USP7 was confirmed by immunoblotting (FIG. 38F). […] Similar behavior was observed on Cos-1 cell lysates (FIG. 38B).

UCH-L5, UCH-L3, UCH-L1 = experiment: HA-Ub-VS activity profiling in cell lysates, UCH-Ls; type: biochemical, human
Procedure: as §1, §2, §3, §4

HEK 293T cells = experiment: accumulation of K48- and K63-linked Ub species in HEK 293T cells; type: cell-based, human; details: 50 μM, 2 h
Procedure: FIG. 32 depicts data showing that diphenyl carbonates inhibit DUBs in HEK 293T cells. A. Viability of HEK 293T cells assessed by the propidium iodide exclusion method: diphenyl carbonate (100 μM), bortezomib (V, 20 μM) and G5 (2 μM). N≧3, mean+/−s.d. B. HEK 293T cells were treated with the stated compounds (50 μM) for 2 h and then assayed for the accumulation of K48-linked Ub species. C. As in A, but K63-linked Ub was assayed. D. HEK 293T cells were treated with C14, C15, C17, C18 (100 μM) or DMSO for 2 hours, then harvested, lysed and treated with HA-Ub-VS. After 30 min, lysates were analyzed by SDS-PAGE and probed for HA, tubulin and actin. An intervening lane was removed for clarity. E. HEK 293T cells expressing Ub-G76V-GFP were treated with diphenyl carbonates (100 μM), bortezomib (20 μM) and G5 (2 μM). […] N>3, Mean+/−s.d. See also FIG. 39. […]

USP9x = molecular target: T1, USP9x (Homo sapiens, UniProt Q93008); experiment: HA-Ub-VS labeling in K562 cell lysates; type: biochemical; details: compound 40 minutes, then HA-Ub-VS (1.5 μM) 20 minutes
T1 construct: endogenous in cells; host or cells: K562 cell lysate
Procedure: HA-Ub-VS is commonly used to label DUBs in cell lysates. […] A. and B. K562 cell lysates were treated with compound for 40 minutes prior to activity labeling with HA-Ub-VS (1.5 μM) for 20 minutes. Samples were analyzed by SDS-PAGE and immunoblotting with anti-HA antibody. C. […] Values were derived by fitting to the in Prism.

MCF7 cells [4] = experiment: viability and cell cycle of MCF7 cells (Alamar Blue, FACS); details: Alamar Blue
Procedure: (§5) MCF7 cells were dosed every 2 hours with the indicated concentration of C15. After 6 hours, cells were lysed by freeze thaw and then sonicated in 0.5% SDS. […] MCF7 cells were treated under the stated conditions then analyzed for cell cycle. […] G. Cells treated with C17 (25 μM), dosed every 24 hours. H. Cells treated with C17 (50 μM), dosed every 24 hours. […] These cells were left for 72 h (single dose) after which time the total number of viable cells was analyzed using Alamar Blue®. All data are n≧4 showing mean+/−s.e.m. K. MCF7 cells were plated with C17 for 24 hours after which time the total number of viable cells was measured by Alamar Blue®.
(§6) All cells were grown at 37° C. in a 5% CO2 humidified atmosphere in DMEM supplemented with 10% heat inactivated FBS, 1× glutamax, and 1× penicillin/streptomycin. […] Proliferation assays were conducted by plating cells at 5% confluence in 96 well plates together with compound or 0.1% DMSO. Cells were allowed to grow for 72 hours (a 24 h dosing regimen was used for carbonate compounds) and then Alamar Blue® was added and number of cells was measured by fluorescence on a microplate reader.

MCF7 cells [5] = test system: MCF7 cells
Procedure: as §5, §6

[6] = HEK 293T lysates, 75 μM, 30 minutes preincubation

T1 sequence (Q93008 whole entry): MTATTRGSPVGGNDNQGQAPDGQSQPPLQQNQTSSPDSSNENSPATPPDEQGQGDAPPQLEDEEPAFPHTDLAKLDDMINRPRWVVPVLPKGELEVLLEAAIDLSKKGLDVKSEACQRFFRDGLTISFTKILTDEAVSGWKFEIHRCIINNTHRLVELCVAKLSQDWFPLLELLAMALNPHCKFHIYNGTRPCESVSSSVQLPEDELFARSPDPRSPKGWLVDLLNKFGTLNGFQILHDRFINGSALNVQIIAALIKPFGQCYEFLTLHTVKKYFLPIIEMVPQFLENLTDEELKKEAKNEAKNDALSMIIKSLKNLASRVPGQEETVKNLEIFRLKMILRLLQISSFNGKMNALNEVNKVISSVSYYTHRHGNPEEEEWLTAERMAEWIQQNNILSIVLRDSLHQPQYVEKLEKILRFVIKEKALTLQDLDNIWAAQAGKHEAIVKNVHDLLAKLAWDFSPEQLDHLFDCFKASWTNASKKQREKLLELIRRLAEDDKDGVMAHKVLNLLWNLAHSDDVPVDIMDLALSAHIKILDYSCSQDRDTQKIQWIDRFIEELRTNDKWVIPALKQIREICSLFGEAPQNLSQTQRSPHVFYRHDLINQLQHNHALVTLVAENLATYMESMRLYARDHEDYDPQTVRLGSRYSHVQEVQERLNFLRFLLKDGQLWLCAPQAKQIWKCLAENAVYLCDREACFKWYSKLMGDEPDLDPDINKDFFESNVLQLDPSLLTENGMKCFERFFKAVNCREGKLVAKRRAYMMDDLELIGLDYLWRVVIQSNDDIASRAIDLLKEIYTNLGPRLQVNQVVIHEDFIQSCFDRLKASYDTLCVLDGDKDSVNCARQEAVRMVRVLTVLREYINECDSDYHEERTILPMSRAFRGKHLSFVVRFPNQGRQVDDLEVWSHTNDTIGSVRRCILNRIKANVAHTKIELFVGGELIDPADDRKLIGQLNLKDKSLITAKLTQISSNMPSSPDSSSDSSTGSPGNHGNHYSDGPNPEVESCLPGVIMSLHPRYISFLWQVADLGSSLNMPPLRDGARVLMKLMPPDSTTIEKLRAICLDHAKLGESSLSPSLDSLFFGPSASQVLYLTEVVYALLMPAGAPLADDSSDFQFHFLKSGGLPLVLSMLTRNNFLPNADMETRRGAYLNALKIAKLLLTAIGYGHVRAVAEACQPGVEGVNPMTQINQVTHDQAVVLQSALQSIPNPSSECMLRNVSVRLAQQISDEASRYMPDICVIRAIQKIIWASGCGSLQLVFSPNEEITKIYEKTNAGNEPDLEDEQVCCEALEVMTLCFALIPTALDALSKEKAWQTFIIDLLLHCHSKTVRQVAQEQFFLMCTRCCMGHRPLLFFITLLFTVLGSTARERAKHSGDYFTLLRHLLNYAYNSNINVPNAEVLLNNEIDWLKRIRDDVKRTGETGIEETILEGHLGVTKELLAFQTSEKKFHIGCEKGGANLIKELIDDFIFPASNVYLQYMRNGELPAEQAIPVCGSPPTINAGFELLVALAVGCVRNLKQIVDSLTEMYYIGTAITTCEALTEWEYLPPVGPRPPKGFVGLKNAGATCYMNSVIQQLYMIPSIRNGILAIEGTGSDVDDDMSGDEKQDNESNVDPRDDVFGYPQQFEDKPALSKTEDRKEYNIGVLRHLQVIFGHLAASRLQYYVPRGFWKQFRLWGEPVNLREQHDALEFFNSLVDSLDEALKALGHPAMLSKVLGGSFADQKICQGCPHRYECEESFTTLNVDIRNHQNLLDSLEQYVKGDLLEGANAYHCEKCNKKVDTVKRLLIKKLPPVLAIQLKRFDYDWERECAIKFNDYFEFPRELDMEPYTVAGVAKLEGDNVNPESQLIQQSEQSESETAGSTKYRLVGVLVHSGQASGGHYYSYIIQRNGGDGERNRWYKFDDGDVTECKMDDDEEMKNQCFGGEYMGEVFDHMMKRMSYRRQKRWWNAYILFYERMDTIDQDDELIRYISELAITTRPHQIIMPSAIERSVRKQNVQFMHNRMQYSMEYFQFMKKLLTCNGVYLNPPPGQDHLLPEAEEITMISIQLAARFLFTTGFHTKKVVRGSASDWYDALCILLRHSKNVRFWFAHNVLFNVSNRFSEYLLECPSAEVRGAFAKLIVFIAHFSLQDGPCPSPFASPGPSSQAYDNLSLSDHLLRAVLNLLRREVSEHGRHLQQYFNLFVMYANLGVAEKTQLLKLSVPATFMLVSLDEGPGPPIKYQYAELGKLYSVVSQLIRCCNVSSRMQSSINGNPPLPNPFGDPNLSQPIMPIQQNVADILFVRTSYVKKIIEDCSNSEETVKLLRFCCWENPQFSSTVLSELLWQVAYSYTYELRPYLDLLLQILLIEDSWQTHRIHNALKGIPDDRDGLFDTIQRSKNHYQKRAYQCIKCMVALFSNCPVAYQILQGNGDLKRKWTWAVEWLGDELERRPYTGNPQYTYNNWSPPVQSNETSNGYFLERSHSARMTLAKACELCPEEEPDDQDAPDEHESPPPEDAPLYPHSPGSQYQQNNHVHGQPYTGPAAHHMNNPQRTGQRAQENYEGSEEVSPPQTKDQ

Structure (SMILES): CC(C)CNCc1ccc(OC(=O)Oc2ccc3ccccc3c2)cc1.Cl [compound 10]
inhibition (total ubiquitin pool) (DUBs [1]): have some potency

Structure (SMILES): N=C(N)NCc1ccc(OC(=O)Oc2ccc3ccccc3c2)cc1 [Compound C22]
DUB inhibitory activity, SAR in words (DUBs [2]): efficacious
HA-Ub-VS labeling of USPs [3, 6]: decreased HA-Ub-VS labeling of several USPs
HA-Ub-VS labeling, dose response ([3]; at 12 μM): significantly inhibited the labeling of several high molecular weight proteins
HA-Ub-VS labeling of UCHL enzymes (UCH-L5, UCH-L3, UCH-L1; [6]): relatively little effect on the UCHL enzymes
inhibition of UCH-L1/3/5, dose response (UCH-L5, UCH-L3, UCH-L1; below 50 μM): little inhibition of UCH-L1/3/5 was observed below 50 μM
accumulation of K48-linked HMW-Ub (HEK 293T cells): failed to cause the accumulation of HMW-Ub

EC50 (USP9x): > 50 µM
Structure (SMILES): CC(C)(C)OC(=O)NCc1ccc(NC(=S)Oc2ccccc2)cc1 [TCM23]

Structure (SMILES): CC(C)CNCc1ccc(OC(=O)Oc2ccc3ccccc3c2)cc1 [Compound C21]
DUB inhibitory activity, SAR in words (DUBs [2]): somewhat deleterious

Structure (SMILES): CC(C)(C)CNCc1ccc(OC(=O)Oc2ccc3ccccc3c2)cc1.Cl [compound 11]
inhibition (total ubiquitin pool) (DUBs [1]): have some potency

Structure (SMILES): NCc1ccc(CC(=O)Oc2ccccc2)cc1 [Compound C10]
stabilization of the HMW-Ub pool (DUBs [2]): nor the analogous esters (C9 and C10) stabilized HMW-Ub

Structure (SMILES): CC(C)(C)CNCc1ccc(OC(=O)Oc2ccc3ccccc3c2)cc1 [Compound C20]
DUB inhibitory activity, SAR in words (DUBs [2]): inhibitory activity was retained
accumulation of K48-linked HMW-Ub (HEK 293T cells): failed to cause the accumulation of HMW-Ub

Structure (SMILES): O=C(Oc1ccccc1)Oc1ccc(CNCc2ccc(Cl)cc2)cc1 [Compound C5]
stabilization of the HMW-Ub pool (DUBs [2]): inhibited the decomposition of the HMW-Ub pool
DUB inhibitory activity, SAR in words (DUBs [2]): retained DUB inhibitory activity

Structure (SMILES): Oc1ccc2ccccc2c1 [Compound 2-Naphthol, 2-Naphthol]
cytotoxicity after single dose, 72 h (MCF7 cells [4]): not cytotoxic

Structure (SMILES): NCc1ccc(OC(=O)Oc2ccccc2Cl)cc1 [Compound C16, 4-(aminomethyl)phenyl(2-chlorophenol)carbonate]
DUB inhibitory activity, SAR in words (DUBs [2]): improved potency relative to C4

Structure (SMILES): CC(C)(C)OC(=O)NCc1ccc(OC(=O)Oc2ccc3ccccc3c2)cc1 [Compound C19]
DUB inhibitory activity, SAR in words (DUBs [2]): Inhibitory activity was not recovered

Structure (SMILES): NCc1ccc(O)cc1 [aminomethylphenol, 4-(aminomethyl)phenol]
cytotoxicity after single dose, 72 h (MCF7 cells [5]): not cytotoxic

Structure (SMILES): COc1ccc(OC(=O)Oc2ccc(CN)cc2)cc1 [Compound C13, 4-(aminomethyl)phenyl(4-methoxyphenyl)carbonate]
DUB inhibitory activity, SAR in words (DUBs [2]): had no effect on inhibitory activity

Structure (SMILES): CC(C)(C)OC(=O)NCc1ccc(OC(=O)Oc2ccccc2)cc1 [Compound C3]
DUB inhibitory activity, SAR in words (DUBs [2]): activity was lost

Structure (SMILES): NCc1ccc(NC(=O)Oc2ccccc2)cc1 [Compound C8]
stabilization of the HMW-Ub pool (DUBs [2]): Neither the analogous carbamates (C7 and C8, FIG. 30 and FIG. 36), nor the analogous esters (C9 and C10) stabilized HMW-Ub

Structure (SMILES): NCc1ccc(OC(=O)Nc2ccccc2)cc1 [Compound C7]
stabilization of the HMW-Ub pool (DUBs [2]): Neither the analogous carbamates (C7 and C8, FIG. 30 and FIG. 36), nor the analogous esters (C9 and C10) stabilized HMW-Ub

Structure (SMILES): NCc1ccc(OC(=O)Oc2ccc(F)cc2)cc1 [Compound C11, 4-(aminomethyl)phenyl(4-fluorophenyl)carbonate]
DUB inhibitory activity, SAR in words (DUBs [2]): had no effect on inhibitory activity

Structure (SMILES): NCc1ccc(OC(=O)Cc2ccccc2)cc1 [Compound C9]
stabilization of the HMW-Ub pool (DUBs [2]): nor the analogous esters (C9 and C10) stabilized HMW-Ub

Structure (SMILES): CC(C)(C)OC(=O)NCc1ccc(OC(=O)Oc2ccc(Cl)cc2)cc1 [compound 16, N-Boc 4-(aminomethyl)phenyl(4-chlorophenyl)carbonate]
inhibition (total ubiquitin pool) (DUBs [1]): not an efficient inhibitor

Structure (SMILES): Cc1ccc(OC(=O)Oc2ccc(CN)cc2)cc1 [Compound C12, 4-(aminomethyl)phenyl(4-methylphenyl)carbonate]
DUB inhibitory activity, SAR in words (DUBs [2]): had no effect on inhibitory activity

EC50 (USP9x): 45 ± 8 µM
Structure (SMILES): CC(C)(C)OC(=O)NCc1ccc(NC(=S)Oc2ccc(Cl)cc2)cc1 [TCM28]

Structure (SMILES): CC(C)(C)OC(=O)NCc1ccc(OC(=O)Oc2ccc(Cl)cc2)cc1 [Compound C23, N-Boc 4-(aminomethyl)phenyl(4-chlorophenyl)carbonate]
DUB inhibitory activity, SAR in words (DUBs [2]): Inhibitory activity was not recovered

From patent US20160090351A1, “INHIBITORS OF DEUBIQUITINATING PROTEASES” (BRANDEIS UNIVERSITY, priority 2013, published 2016)
